{
  "source": "patent US20200384188A1",
  "about": "“SYSTEMS, DEVICES, FORMULATIONS AND METHODS FOR CONTROLLED DRUG DELIVERY” (priority 2017, published 2020)",
  "tested_on": "rats (Group 1 Sprague-Dawley, Group 4 Han Wister)",
  "assay": "Randall-Selitto test (Brewers Yeast-inflamed hind paw, analgesy meter)",
  "format": "in vivo, rat",
  "conditions": "for Force (g) applied to the inflamed (right) paw, individual animals / Force (g) applied to the inflamed (right) paw, mean / % change from baseline, force on inflamed (right) paw / % change from baseline, force on untreated (left) paw / Force (g) applied, Left paw, individual animals / Force (g) applied, Right Paw (inflamed), individual animals / Force (g) applied to the untreated (left) paw, mean: 50 mg/kg sc; for Force (g) applied to the inflamed (right) paw, individual animals: animals R0001-R0006; for Force (g) applied to the inflamed (right) paw, individual animals / Force (g) applied, Left paw, individual animals / Force (g) applied, Right Paw (inflamed), individual animals: 50 mg/kg",
  "text": "The Randall Selitto test is a tool to assess the response thresholds to mechanical pressure stimulation following induction of a hyperalgesic state by injection of an inflammatory agent and is considered a measure of mechanical hyperalgesia (Randall and Selitto, 1957). This involves application of an increasing force to the surface of the paw until withdrawal or vocalization occurs. The test can produce results similar to decreases on pressure pain thresholds observed in clinical conditions, such as fibromyalgia, myofascial pain, or osteoarthritis (Arendt-Nielsen et al., 2010; Bennett, 2007; Finan et al., 2013; Hsu et al., 2010). Centrally and peripherally acting effects can be detected using this model, for example, opioids increase the mechanical threshold to the normal and inflamed paw, whereas nonsteroidal anti-inflammatory drugs are only effective in the inflamed paw.\nEighteen male Sprague-Dawley rats were obtained from Charles River, Margate, United Kingdom, and were used for dosing. Animals weighed between 319 and 419 g on the day of dosing. Eight male Han Wister rats were obtained from Charles River, Margate, United Kingdom and used for Group 4. Animals weighed between 381 and 504 g on the day of dosing. The animals were assessed according to Table 1.\nAnimals were dosed subcutaneously via a motorized insulin pump.\nThe threshold of a pain response to increasing pressure was measured using an analgesy meter (Ugo Basile, Italy). The animal was gently held by a competent operator, and the hind paw of the animal was positioned over a convex surface (a cone-shaped pusher). A gradually increasing pressure (g) was applied to the upper surface of the paw. The force was continuously monitored by a pointer moving along a linear scale and was stopped by depression of a foot pedal when the animal struggled. A cut-off value of 300 g was adopted (based on available literature and experience).\nPre-dose Phase: The pressure pain threshold of each animal was tested on two occasions (once in the morning and once in the afternoon). This allowed animals to acclimate to the procedure.\nDay of Dosing: On the day of dosing, each animal was administered a 0.1 mL 20% suspension of Brewers Yeast subcutaneously into the sub-plantar of the right hind paw at approximately 180 minutes prior to ketamine administration. Immediately prior to ketamine administration (Group 4), 15 and 30 minutes and 1, 2, and 4 hours post administration of ketamine, each animal was assessed for a response to increasing pressure on both hind paws (Group 1 used right hind paw, Group 4 used both hind paws), using the analgesy meter. Signs of anesthesia were recorded.",
  "note": "“And” between values parts separate entries of the source, which are not always exact repeats. Identical values can stand only once.",
  "data": [
    {"smiles": "CNC1(c2ccccc2Cl)CCCCC1=O", "note": "(centres unmarked) [ketamine]", "values": [
      {"measurement": "Force (g) applied to the inflamed (right) paw, individual animals", "setting": "Group 1, 0.25 h", "value": "90 g (2×) and 20 g and 40 g (2×) and 120 g"},
      {"measurement": "Force (g) applied to the inflamed (right) paw, mean", "setting": "Group 1, 0.25 h, n=6", "value": 153.3, "unit": "g"},
      {"measurement": "Force (g) applied to the inflamed (right) paw, individual animals", "setting": "Group 1, 0.5 h", "value": "100 g and 130 g and 80 g and 170 g and 120 g and 40 g"},
      {"measurement": "Force (g) applied to the inflamed (right) paw, mean", "setting": "Group 1, 0.5 h, n=6", "value": 66.7, "unit": "g"},
      {"measurement": "Force (g) applied to the inflamed (right) paw, individual animals", "setting": "Group 1, 1 h", "value": "130 g and 120 g (2×) and 80 g (2×) and 60 g"},
      {"measurement": "Force (g) applied to the inflamed (right) paw, mean", "setting": "Group 1, 1 h, n=6", "value": 106.7, "unit": "g"},
      {"measurement": "Force (g) applied to the inflamed (right) paw, individual animals", "setting": "Group 1, 2 h", "value": "60 g and 110 g and 50 g and 200 g and 120 g and 140 g"},
      {"measurement": "Force (g) applied to the inflamed (right) paw, mean", "setting": "Group 1, 2 h, n=6", "value": 98.3, "unit": "g"},
      {"measurement": "Force (g) applied to the inflamed (right) paw, individual animals", "setting": "Group 1, 4 h", "value": "120 g (2×) and 110 g and 140 g and 90 g (2×)"},
      {"measurement": "Force (g) applied to the inflamed (right) paw, mean", "setting": "Group 1, 4 h, n=6", "value": 113.3, "unit": "g"},
      {"measurement": "pressure required to initiate a response, in words", "setting": "Group 1, 0.5 to 2 hours post-dose versus the 15 minute time point, majority of animals", "value": "increase in pressure required to initiate a response"},
      {"measurement": "% change from baseline, force on inflamed (right) paw", "setting": "Group 4, 0.25 h", "value": "−5.7", "unit": "%"},
      {"measurement": "% change from baseline, force on untreated (left) paw", "setting": "Group 4, 0.25 h", "value": "−17.0", "unit": "%"},
      {"measurement": "Force (g) applied, Left paw, individual animals", "setting": "Group 4, 0.25 h", "value": "60 g and 100 g and 180 g and 90 g and 80 g and 130 g and 110 g and 30 g"},
      {"measurement": "Force (g) applied, Right Paw (inflamed), individual animals", "setting": "Group 4, 0.25 h", "value": "10 g and 30 g and 80 g and 50 g and 40 g and 60 g (2×) and 0 g"},
      {"measurement": "Force (g) applied to the inflamed (right) paw, mean", "setting": "Group 4, 0.25 h, n=8", "value": 41.3, "unit": "g"},
      {"measurement": "Force (g) applied to the untreated (left) paw, mean", "setting": "Group 4, 0.25 h, n=8", "value": 97.5, "unit": "g"},
      {"measurement": "% change from baseline, force on inflamed (right) paw", "setting": "Group 4, 0.5 h", "value": 34.3, "unit": "%"},
      {"measurement": "% change from baseline, force on untreated (left) paw", "setting": "Group 4, 0.5 h", "value": "−9.6", "unit": "%"},
      {"measurement": "Force (g) applied, Left paw, individual animals", "setting": "Group 4, 0.5 h", "value": "120 g (2×) and 130 g (2×) and 150 g and 90 g and 70 g and 40 g"},
      {"measurement": "Force (g) applied, Right Paw (inflamed), individual animals", "setting": "Group 4, 0.5 h", "value": "40 g (2×) and 50 g and 80 g and 90 g and 70 g and 100 g and 0 g"},
      {"measurement": "Force (g) applied to the inflamed (right) paw, mean", "setting": "Group 4, 0.5 h, n=8", "value": 58.8, "unit": "g"},
      {"measurement": "Force (g) applied to the untreated (left) paw, mean", "setting": "Group 4, 0.5 h, n=8", "value": 106.3, "unit": "g"},
      {"measurement": "% change from baseline, force on inflamed (right) paw", "setting": "Group 4, 1 h", "value": 65.7, "unit": "%"},
      {"measurement": "% change from baseline, force on untreated (left) paw", "setting": "Group 4, 1 h", "value": "−10.6", "unit": "%"},
      {"measurement": "Force (g) applied, Left paw, individual animals", "setting": "Group 4, 1 h", "value": "80 g (3×) and 160 g and 100 g (2×) and 200 g and 40 g"},
      {"measurement": "Force (g) applied, Right Paw (inflamed), individual animals", "setting": "Group 4, 1 h", "value": "80 g and 60 g and 140 g and 40 g and 70 g (2×) and 90 g and 30 g"},
      {"measurement": "Force (g) applied to the inflamed (right) paw, mean", "setting": "Group 4, 1 h, n=8", "value": 72.5, "unit": "g"},
      {"measurement": "Force (g) applied to the untreated (left) paw, mean", "setting": "Group 4, 1 h, n=8", "value": 105.0, "unit": "g"},
      {"measurement": "% change from baseline, force on inflamed (right) paw", "setting": "Group 4, 2 h", "value": 165.7, "unit": "%"},
      {"measurement": "% change from baseline, force on untreated (left) paw", "setting": "Group 4, 2 h", "value": "−24.5", "unit": "%"},
      {"measurement": "Force (g) applied, Left paw, individual animals", "setting": "Group 4, 2 h", "value": "100 g (2×) and 70 g and 130 g and 80 g (2×) and 90 g and 60 g"},
      {"measurement": "Force (g) applied, Right Paw (inflamed), individual animals", "setting": "Group 4, 2 h", "value": "180 g and 80 g (2×) and 240 g and 70 g (2×) and 120 g and 90 g"},
      {"measurement": "Force (g) applied to the inflamed (right) paw, mean", "setting": "Group 4, 2 h, n=8", "value": 116.3, "unit": "g"},
      {"measurement": "Force (g) applied to the untreated (left) paw, mean", "setting": "Group 4, 2 h, n=8", "value": 88.8, "unit": "g"},
      {"measurement": "% change from baseline, force on inflamed (right) paw", "setting": "Group 4, 4 h", "value": 38.45, "unit": "%"},
      {"measurement": "% change from baseline, force on untreated (left) paw", "setting": "Group 4, 4 h", "value": 14.9, "unit": "%"},
      {"measurement": "Force (g) applied, Left paw, individual animals", "setting": "Group 4, 4 h", "value": "130 g (2×) and 110 g (3×) and 220 g and 90 g and 180 g"},
      {"measurement": "Force (g) applied, Right Paw (inflamed), individual animals", "setting": "Group 4, 4 h", "value": "60 g and 90 g and 170 g and 100 g (2×) and 80 g and 150 g and 70 g"},
      {"measurement": "Force (g) applied to the inflamed (right) paw, mean", "setting": "Group 4, 4 h, n=8", "value": 102.5, "unit": "g"},
      {"measurement": "Force (g) applied to the untreated (left) paw, mean", "setting": "Group 4, 4 h, n=8", "value": 135.0, "unit": "g"},
      {"measurement": "pressure required in the treated (right) paw at 15 minutes post-dose, in words", "setting": "Group 4, 15 minutes post-dose", "value": "slight decrease"},
      {"measurement": "pressure required to initiate a response in the treated (right) paw, in words", "setting": "Group 4, between 0.5 and 2 hours post-dose compared to pre-dose, time dependent", "value": "increase in pressure required to initiate a response"},
      {"measurement": "force applied to the untreated (left) paw, in words", "setting": "Group 4, throughout the data collection", "value": "remained comparable to pre-dose"}
    ]}
  ]
}
